From patent publication US10774051B2, “6-membered heterocyclic derivatives and pharmaceutical composition comprising the same” (Shionogi & Co., Ltd., priority 2015, dated 2020) come the findings set out here.

By IC50 is commonly meant the concentration that inhibits the measured activity by half.

Some results are limits rather than exact numbers.

One assay deals with human P2X7 receptor (Homo sapiens, UniProt Q99572, R270H/Y155H). The experiment in a line: Evaluation of human P2X7 receptor inhibitory activity (Yo-Pro uptake, BzATP stimulation, FLIPR TETRA). Type of assay: cell-based. The following applies: 1321N1 cells stably expressing human P2X7 receptor; BzATP stimulation, Yo-Pro uptake; read-out: IC50 (antagonistic activity for the human P2X7 receptor). A digest of the protocol: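 Yo-Pro dye uptake triggered by BzATP was monitored by FLIPR in human P2X7-transfected 1321N1 cells (SNP variant) in HEPES-buffered HBSS, pH 7.4-7.5. Compound was dispensed 8 min post-stimulation, then signal read for 20 min; IC50 derived logistically from inhibition of the fluorescence range.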
With `COc1cn(Cc2ccccc2)c(Nc2cccc3c2CCCC3)nc1=O` [Compound I-0190], the IC50 stood at 71 nM.
The same measure, in the same setting: the result for `COc1cn(Cc2ccc(F)c(Cl)c2)c(Nc2cc(C#N)ccc2C)cc1=O` [Compound I-0957] reads 110 nM; that for `COc1cn(Cc2ccc(F)c(Cl)c2)c(Nc2ccc3oc(C)cc3c2C)nc1=O` [Compound I-0825], 9 nM; that for `COc1cn(Cc2cc(F)cc(F)c2)c(Nc2cc(C)c(OC(F)(F)F)cc2C)nc1=O` [Compound I-0924], 17 nM.

Staying with this assay, now noted: 1321N1 cells stably expressing human P2X7 receptor; BzATP stimulation, Yo-Pro uptake; read-out: IC50 (antagonistic activity for the human P2X7 receptor), class symbol.
Turning to `COc1cc(C)c(Nc2nc(=O)c(F)cn2Cc2ccc(F)cc2)cc1OC` [Compound I-0209], the IC50 is under 10 nM.
With `COc1cn(Cc2ccccc2)c(Nc2cccc(C(F)(F)F)c2Cl)nc1=O` [Compound I-0036], the IC50 was in the range of 100 to 500 nM.
Same read-out and setting: the figure for `CCc1c(Nc2nc(=O)c(OC)cn2Cc2cccc(Cl)c2)cccc1OC` [Compound I-0214] is under 10 nM.
The same measure, in the same setting: the result for `COc1cn(Cc2ccccc2)c(Nc2cccc3c2ccn3C)nc1=O` [Compound I-0117] reads 10 to 100 nM; that for `COc1cn(Cc2cc(F)cc(F)c2)c(Nc2ccc(OC(C)C)cc2C)nc1=O` [Compound I-0531], 10 to 100 nM.
On the same count and under the same terms, the figure for `COc1cn(Cc2ccccc2)c(NCc2ccccc2N(C)C)nc1=O` [Compound I-0067] is 500 to 1000 nM; for `COc1cn(Cc2cc(C)cc(F)c2)c(Nc2cccc(Cl)c2C)nc1=O` [Compound I-0466] it is 10 to 100 nM.
In the case of `COc1cn(Cc2ccccc2)c(Nc2cc(Cl)c(Cl)cc2C)nc1=O` [Compound I-0459], the IC50 was under 10 nM.
On the same count and under the same terms, the figure for `COc1cn(Cc2cc(F)cc(F)c2)c(Nc2cc(Cl)c(Cl)cc2C)nc1=O` [Compound I-0541] is 10 to 100 nM.
On to `COc1cc(C)c(Nc2nc(=O)c(OC)cn2Cc2ccc(F)cc2)cc1OC` [Compound I-0275], for which the concentration for half-maximal inhibition (IC50) was in the range of 10 to 100 nM.
Same read-out and setting: the figure for `COc1cn(Cc2cc(F)cc(F)c2)c(Nc2cc(-c3ncco3)ccc2C)nc1=O` [Compound I-0554] is 10 to 100 nM; for `COc1cn(Cc2cccc(Cl)c2)c(Nc2cc(C)ccc2C)nc1=O` [Compound I-0333] it is 10 to 100 nM; for `Cc1c(Cl)cccc1Nc1nc(=O)c(C(=O)NCCS(C)(=O)=O)cn1Cc1ccccc1` [Compound I-0077] it is 10 to 100 nM.
Turning to `COc1ccc(Nc2nc(=O)c(OC)cn2Cc2cc(F)cc(F)c2)c(C)c1` [Compound I-0538], the IC50 was in the range of 10 to 100 nM.
Consider `COc1cn(Cc2ccccc2COC(F)F)c(Nc2cccc(Cl)c2C)nc1=O` [Compound I-0458], for which the IC50 was 10 to 100 nM.
On to `COc1cn(Cc2ccccc2)c(Nc2cc(C)cc(C)c2C)nc1=O` [Compound I-0298], for which the IC50 lay within 10 to 100 nM.
The same measure, in the same setting: the figure for `COc1c(C)ccc(Nc2nc(=O)c(OC)cn2Cc2cc(F)cc(F)c2)c1C` [Compound I-0540] is under 10 nM; for `Cc1c(Cl)cccc1Nc1nc(=O)c(F)cn1Cc1ccc(F)c(F)c1` [Compound I-0471] it is under 10 nM.

The assay is the same for the next values; noted with them: antagonistic activity for the human P2X7 receptor; read-out: IC50.
Take `Cc1ccc(-c2cscn2)cc1Nc1nc(=O)c(F)cn1Cc1ccc(F)c(F)c1` [Compound I-0861]: the half-maximal inhibitory concentration (IC50) was under 10 nM.
Same read-out and setting: the figure for `COc1cn(Cc2ccc(F)c(Cl)c2)c(Nc2ccc3[nH]ccc3c2C)nc1=O` [Compound I-0584] is under 10 nM.
For `COc1cn(Cc2cc(F)cc(F)c2)c(Nc2cccc3occc23)nc1=O` [Compound I-0640], the half-inhibitory concentration (IC50) fell in the range of 10 to 100 nM.
The same measure, in the same setting: the result for `COc1cn(Cc2cc(F)cc(F)c2)c(Nc2cc(S(C)(=O)=O)cc(C)c2C)nc1=O` [Compound I-0758] reads 10 to 100 nM; that for `Cc1cc(OC(F)(F)F)ccc1Nc1nc(=O)c(F)cn1Cc1cc(F)cc(F)c1` [Compound I-1102], 10 to 100 nM.
On to `COc1ccc(Nc2nc(=O)c(C)nn2Cc2cc(F)c(F)c(F)c2)c(C)n1` [Compound I-1259], for which the IC50 lay in the range of 10 to 100 nM.
Take `COc1cc(C)c(Nc2nc(=O)c(C#N)cn2Cc2cc(F)c(F)c(F)c2)cc1C` [Compound I-1083]: the half-inhibitory concentration (IC50) was under 10 nM.
On to `COc1cn(Cc2ccccc2)c(Nc2cc(F)c(Cl)cc2C)nc1=O` [Compound I-0886], for which the IC50 was in the range of 10 to 100 nM.
For the compound `Cc1nc2cc(C)c(Nc3nc(=O)c(Cl)cn3Cc3ccc(F)c(Cl)c3)cc2s1` [Compound I-0787], the IC50 was under 10 nM.
Still for that read-out and setting: the figure for `Cc1nc2cc(C)c(Nc3nc(=O)c(F)cn3Cc3ccc(F)c(F)c3)cc2s1` [Compound I-1010] is under 10 nM.
On the same count and under the same terms, the result for `CCc1ccc(OC)cc1Nc1nc(=O)c(OC)cn1Cc1cc(F)cc(F)c1` [Compound I-0637] reads under 10 nM; that for `COc1ccc(Nc2nc(=O)c(CCO)cn2Cc2cc(F)c(F)c(F)c2)c(C)c1` [Compound I-1104], 10 to 100 nM.
Regarding `Cc1cc(CO)ccc1Nc1nc(=O)c(F)cn1Cc1cc(F)c(F)c(F)c1` [Compound I-1236], the half-inhibitory concentration (IC50) is under 10 nM.
Regarding `COc1cn(Cc2cc(F)c(F)c(F)c2)c(Nc2c(C)ccc(C)c2F)nc1=O` [Compound I-0929], the IC50 was under 10 nM.
The same measure, in the same setting: the result for `COc1nc(C)c(Nc2nc(=O)c(F)cn2Cc2cc(F)c(F)c(F)c2)cc1C` [Compound I-1000] reads under 10 nM; that for `Cc1cc2[nH]ccc2cc1Nc1nc(=O)c(F)cn1Cc1cc(F)cc(F)c1` [Compound I-1044], under 10 nM; that for `COc1cn(Cc2ccc(F)c(F)c2)c(Nc2ccccc2C)nc1=O` [Compound I-0685], 10 to 100 nM.
Same read-out and setting: the result for `COc1ccc(Nc2nc(=O)cnn2Cc2ccc(F)cc2)c(C)c1` [Compound I-1273] reads under 10 nM; that for `COCc1cn(Cc2cc(F)c(F)c(F)c2)c(Nc2cc(C)c(OC)cc2C)nc1=O` [Compound I-1156], under 10 nM; that for `O=c1nc(Nc2cccc3c(O)cccc23)n(Cc2ccc(F)c(Cl)c2)cc1F` [Compound I-1116], under 10 nM.
Still for that read-out and setting: the result for `COc1cn(Cc2cc(F)cc(F)c2)c(Nc2cc(OC3CC3)ccc2C)nc1=O` [Compound I-0892] reads 10 to 100 nM.
Take `COc1ccc(Nc2nc(=O)c(Cl)cn2Cc2cc(F)cc(F)c2)c(C)c1` [Compound I-0845]: the half-inhibitory concentration (IC50) lay in the range of 10 to 100 nM.
Turning to `Cc1cc(F)c(C)c(Nc2nc(=O)c(F)cn2Cc2cc(F)c(F)c(F)c2)c1` [Compound I-1244], the IC50 is under 10 nM.
The same measure, in the same setting: the figure for `Cc1cc(F)c(-c2cccn(C)c2=O)cc1Nc1nc(=O)c(C)cn1Cc1cc(F)c(F)c(F)c1` [Compound I-1148] is 10 to 100 nM.
As to `O=c1nc(Nc2cccc3c(O)cccc23)n(Cc2ccc(F)c(F)c2)cc1F` [Compound I-1115], the IC50 is under 10 nM.
Still for that read-out and setting: the result for `COc1cc(C)c(Nc2nc(=O)c(OC)cn2Cc2cc(F)c(F)c(F)c2)cc1C` [Compound I-0632] reads under 10 nM; that for `COc1cn(Cc2cc(F)c(F)c(F)c2)c(Nc2cc(OC(F)F)c(C)cc2C)nc1=O` [Compound I-0805], under 10 nM.
In the case of `Cc1ccc(Nc2nc(=O)c(F)cn2Cc2cc(F)c(F)c(F)c2)c(Cl)c1` [Compound I-1184], the IC50 was under 10 nM.
The same measure, in the same setting: the figure for `COc1cn(Cc2ccccc2)c(Nc2cc(OC(F)(F)F)ccc2C)nc1=O` [Compound I-0691] is 100 to 500 nM; for `CCOc1ccc(Nc2nc(=O)c(F)cn2Cc2ccc(F)c(F)c2)c(C)c1` [Compound I-1048] it is 10 to 100 nM; for `COc1ccc(C)c(Nc2nc(=O)cnn2Cc2cc(F)c(F)c(F)c2)c1` [Compound I-1282] it is under 10 nM.
Same read-out and setting: the result for `CCOc1cc(C)c(Nc2nc(=O)c(F)cn2Cc2ccc(F)c(F)c2)cc1F` [Compound I-1062] reads 10 to 100 nM.
